Tests used:
[1] = system: mice; assay: Hot plate test (pain threshold, mice); format: in vivo, Kunming mice; conditions: x ± s, n = 10; for Pain thresholds before administration: hot plate 55°C, baseline before administration; for Pain thresholds after administration at 30 min / Pain thresholds after administration at 60 min / Pain thresholds after administration at 120 min / Pain thresholds after administration at 180 min / Pain thresholds after administration at 240 min: hot plate
Protocol: Kunming mice, grade 2, female, weight of 20±2 g, purchased from the Division of Laboratory Animals, Department of Medical Sciences of Peking University, animal license No.: SCX Jing 2002-0001.
1.2.1 Solutions of huperzine A and huperzine A derivatives in normal saline water were prepared for stomach perfusion of mice.
1.2.2 Solutions of bucinnazine hydrochloride tablets, 30 mg/tablet, manufactured by Tianjin Lisheng Pharmaceutical Factory, approval No.: 0201001, in normal saline solution were prepared at a concentration of 1.5 mg/ml for stomach perfusion of mice.
A water bath was heated to a constant temperature of 55±0.5° C. The bottom of a metal plate was placed in contact with water surface. A mouse was placed on the hot plate and a timer was activated. The timer was deactivated when the mouse began licking its rear feet. The measured time was taken as the pain threshold. The pain threshold was measured two times for each mouse, and those mice whose average pain threshold was less than 30 s were qualified for the experiment.
Qualified mice were randomly divided into groups of 10. At first the pain threshold before administration of a drug was measured. Then drugs were administered as identified in Table 1. The administration volume was 0.2 ml per each 10 g of weight. Normal saline solution was administered to the control group. After administration, the pain threshold was measured at different time periods post-administration. A statistical t-test was calculated of the group interval, based on the test data.

[2] = system: migraine; assay: Treatment of migraine with oral huperzine A (clinical cases); format: in vivo, human; conditions: for Time from administration until headache completely disappeared: two tablets (50 μg/tablet) oral on occurrence of migraine
Protocol: Test 2: Treatment of Migraine with Oral Huperzine A
Drug: Huperzine A Tablet (50 μg/tablet, manufactured by Henan Zhulin Zhongsheng Pharmaceutical Factory.)
Previously treated with bufferin plus, but recently reported that analgesic effects of bufferin plus have weakened.
Methods: On occurrence of migraine pains (8 times within a month), two tablets of huperzine A were administered. Within 20 minutes from administration, the headache has completely disappeared.
Patient: with a medical history of migraine of 2 years. Previously treated with ergotamine, but recently reported that analgesic effects of ergotamine have weakened.
Methods: On occurrence of migraine pains (10 times within a month), two tablets of huperzine A were administered. Within 30 minutes from administration, the headache has completely disappeared.
Patient: with a medical history of migraine of 3 years, occurring at a frequency of about 8-12 times per month.
Methods: One tablet of huperzine A was administered per day orally.

With `C/C=C1\[C@H]2C=C(C)C[C@]1(N)c1ccc(=O)[nH]c1C2` [Huperzine A, (5R,9R,11E)-5-amino-11-ethylidene-5,6,9,10-tetrahydro-7-methyl-5,9-methanocycloocta[b]pyridin-2(1H)-one] the “Pain thresholds before administration” value ([1]; group later dosed 0.2 mg/kg by stomach perfusion) was 14.2 ± 4.49 s, the “Pain thresholds before administration” value ([1]; group later dosed 0.4 mg/kg by stomach perfusion) was 15.3 ± 2.86 s and the “Pain thresholds after administration at 30 min” value (shortened to “Pain thresholds … at 30 min”) ([1]; 0.2 mg/kg stomach perfusion) was 13.3 ± 4.05 s. The “Pain thresholds after administration at 60 min” value (shortened to “Pain thresholds … at 60 min”) ([1]; 0.2 mg/kg stomach perfusion) was 14.5 ± 5.08 s, the “Pain thresholds after administration at 120 min” value (shortened to “Pain thresholds … at 120 min”) ([1]; 0.2 mg/kg stomach perfusion) was 14.2 ± 5.20 s and the “Pain thresholds after administration at 180 min” value (“Pain thresholds … at 180 min” below) ([1]; 0.2 mg/kg stomach perfusion) was 13.3 ± 3.68 s. For the same compound, the “Pain thresholds after administration at 240 min” value ([1]; 0.2 mg/kg stomach perfusion) was 14.6 ± 2.84 s, the “Pain thresholds … at 30 min” value ([1]; 0.4 mg/kg stomach perfusion) was 28.4 ± 8.12 s and the “Pain thresholds … at 60 min” value ([1]; 0.4 mg/kg stomach perfusion) was 31.7 ± 10.56 s. For the same compound, the “Pain thresholds … at 120 min” value ([1]; 0.4 mg/kg stomach perfusion) was 27.6 ± 8.22 s, the “Pain thresholds … at 180 min” value ([1]; 0.4 mg/kg stomach perfusion) was 25.5 ± 8.88 s and the “Pain thresholds after administration at 240 min” value ([1]; 0.4 mg/kg stomach perfusion) was 27.8 ± 5.94 s. For the same compound, the “Time from administration until headache completely disappeared” value ([2]; Case 1, migraine patient) was at most 20 min, the “Analgesic effects over a period of one month” value ([2]; Case 1, two tablets (50 μg/tablet) oral per attack) was “Good analgesic effects” and the Side effects ([2]; Case 1, two tablets (50 μg/tablet) oral per attack, 8 times within a month) was “Minor side effects”. The “Time from administration until headache completely disappeared” value ([2]; Case 2, migraine patient) was at most 30 min, the “Analgesic effects over a period of one month” value ([2]; Case 2, two tablets (50 μg/tablet) oral per attack) was “Good analgesic effects” and the Side effects ([2]; Case 2, two tablets (50 μg/tablet) oral per attack, 10 times within a month) was “No side effects”. The “Migraine attacks over the period of 1 month (prevention)” value ([2]; Case 3, migraine about 8-12 times per month, one tablet (50 μg) per day orally) was “did not complain of migraine attacks”, the “Effect of long-term administration on migraine attacks” value ([2]; long-term administration, summary statement) was “prevents migraine attacks” and the “Effect on migraine in clinical studies” value ([2]; oral administration, summary statement) was “alleviates and/or cures migraine”.
With `C/C=C1\[C@H]2C=C(C)C[C@]1(NC(=O)OCC(C)C)c1ccc(=O)[nH]c1C2` [Example 7, (5R,9R,11E)-5-(2-methylpropoxycarbonylamino)-11-ethylidene-5,6,9,10-tetrahydro-7-methyl-5,9-methanocycloocta[b]pyridin-2(1H)-one] the “Pain thresholds before administration” value ([1]; group later dosed 0.6 mg/kg by stomach perfusion) was 15.8 ± 3.97 s, the “Pain thresholds … at 30 min” value ([1]; 0.6 mg/kg stomach perfusion) was 28.5 ± 2.55 s and the “Pain thresholds … at 60 min” value ([1]; 0.6 mg/kg stomach perfusion) was 30.1 ± 6.90 s. For the same compound, the “Pain thresholds … at 120 min” value ([1]; 0.6 mg/kg stomach perfusion) was 27.7 ± 4.49 s and the “Pain thresholds … at 180 min” value ([1]; 0.6 mg/kg stomach perfusion) was 23.1 ± 2.41 s.
